pKd: −log10 of the molar value. “And” between values parts separate entries of the source, which are not always exact repeats. Equal values may be shown once. Read-outs that look alike come from different tables or passages of the source. Values belong to the compound of their own block, whether it stands above or below them.
Assays:
GB1-FRS2-PTB = target: T1, GB1-FRS2-PTB (Homo sapiens, UniProt Q8WU20); assay: Microscale thermophoresis (MST); assay type: binding; details: for pKd: GB1-FRS2_PTB; for binding by MST trace analysis (result in words): signal:noise ratio > 5 counts as binding
T1 construct: FRS2-PTB 11-140aa; 6xHis (N); made in house; host or cells: E. coli BL21 (DE3)
T1 sequence (Q8WU20 11-140): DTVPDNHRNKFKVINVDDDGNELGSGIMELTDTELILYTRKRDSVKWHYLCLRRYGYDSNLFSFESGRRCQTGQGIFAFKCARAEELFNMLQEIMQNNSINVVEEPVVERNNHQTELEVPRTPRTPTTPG
Experimental: Protein labeling for MST was performed with the 2nd Generation BLUE-NHS dye. GB1-FRS2_PTB- was labelled at 20 μM with 60 μM dye and incubated for 30 min in the dark at room temperature. The labelling was performed in the protein buffer without arginine supplementation. It was rebuffered to protein buffer (100 mM sodium phosphate, 50 mM NaCl, 0.5 mM EDTA, 50 mM arginine, 1 mM TCEP, pH 7.0). The dye was subsequently removed by gravitational flow chromatography and the protein concentration determined by UV-spectroscopy. The assay was established with the FGFR_PEP. […] A total volume of 10 μl of 50 nM labelled protein was added to 10 μl of the peptide dilution series for a final labelled protein concentration of 25 nM. The samples were incubated for 15 min at RT. […] Temperature was set to 25 °C. Each measurement was repeated twice. The interaction was measured in duplicates for the non-DMSO-supplemented buffer and in triplicates for DMSO-supplemented buffer. […] The samples were incubated for 15 min, and MST assessed as described above. Each measurement was repeated twice. The interaction was measured in two independent duplicates. […] The mixture was then measured for their initial fluorescence once. MST-experiments were performed with MO.Control vers. 1.6 (NanoTemper Technologies, Munich, Germany) and data analyzed with MO.Analysis vers. 2.3 (NanoTemper Technologies, Munich, Germany). Data was plotted with GraphPad Prism vers. 8.3.0 (GraphPad Software, San Diego, USA).

AGS flank tumors = assay: Anti-tumor activity, AGS flank xenograft model; assay type: in vivo
Experimental: In vivo mouse models were generated and experiment with SKOV3 and AGS models performed by EPO, experimental pharmacology & oncology Berlin-Buch GMBH (Berlin, Germany). AGS model: AGS cells were cultured in F12-K medium (10%FCS, 1%PS) until P11. […]. Tumor diameters were determined by calliper measurements 2 × weekly, body weight (BW) was measured as parameter for tolerability 2 × weekly.

[1] = Multi-dose MTD with plasma exposure; assay type: in vivo
Experimental: […]. […] Body weights were recorded once daily for 8 days. […] In addition, plasma samples were collected at 0.5, 1, 2 and 5.3 h(s) after the second dose on Day 4 (150 mg/kg, PO; bid × 5 group) and at 0.5, 1, 2 and 6 h(s) after the final dose on Day 5 (200 mg/kg, PO; qd × 5 group). The exposure levels (ng/mL) of 7 in plasma samples were then determined by LC–MS/MS. AUClast was calculated from the area under the plasma concentration–time curve from time zero to time of last measurable concentration.

Caco-2 cells = assay: CaCo-2 permeability (bi-directional); details: Direction A2B
In short: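 Caco-2 monolayers (passage 40–60) cultured 20 days on Transwells, equilibrated 40 min in HBSS; compound dosed apically (A-B) or basolaterally (B-A) with 1% v/v DMSO and lucifer yellow integrity marker, in duplicate. LC–MS/MS quantification; Papp from permeation rate, C0 and monolayer area; efflux ratio = Papp(B-A)/Papp(A-B).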

[2] = read-out: KD, initial fluorescence change analysis
[3] = AGS model, 200 mg/kg PO once per day

pKd (GB1-FRS2-PTB; fitting with signal-noise ratio < 5 is considered no binding, read-out: KD, MST trace analysis): 3.82 and 3.40
pKd (GB1-FRS2-PTB; [2]): 4.71 and 4.89 and 4.71 to 4.89
binding by MST trace analysis (result in words) (GB1-FRS2-PTB): did show binding
SMILES: CC(C)C[C@@H](CO)NCc1cc(O)c2cc(F)ccc2n1 [Compound 3.14]

SMILES: O=[N+]([O-])c1c(Cl)cc(O)c2c1C1C=CCC1C(c1ccc(Cl)cc1)N2 (stereo not drawn) [Compound 7]
tolerability in AGS tumor-bearing mice (result in words) (AGS flank tumors; 200 mg/kg PO, treatment interrupted for 7 days at day 72): signs of toxicity
animals with TV reduced at d67 and plateaued between d70 and 77 (AGS flank tumors; [3]): four out of the six
average tumor volume (result in words) (AGS flank tumors; [3]): did not significantly reduce average TV compared to control
additional body weight loss, days 5-8 ([1]; 200 mg/kg daily for 5 days): 14.6%
body weight loss, days 1-5 ([1]; 200 mg/kg daily for 5 days): 10%
multi-dose clinical signs (result in words) ([1]; 200 mg/kg daily for 5 days): induced vocalization, hunchback and decrease in touch response, abdominal and limb tone and low limb post
plasma concentration reached, multi-dose ([1]; 200 mg/kg once daily for 5 days, day five, for at least six h after administration): 20 µM
multi-dose mortality (result in words) ([1]; mouse, in vivo): No mortality was noted

SMILES: N#Cc1c(Cl)cc(O)c2c1C1C=CCC1C(c1ccc(Cl)cc1)N2 (stereo not drawn) [Compound 14]
Comments: A2B permeation (result in words) (Caco-2 cells): Test compound not detectable in receiver compartments A2B.

SMILES: O=[N+]([O-])c1c(Cl)cc(O)c2c1C1C=CCC1C(c1ccc(Cl)cc1Cl)N2 (stereo not drawn) [Compound 8]
Comments: A2B permeation (result in words) (Caco-2 cells): Test compound not detectable in receiver compartments A2B.

pKd (GB1-FRS2-PTB; [2]): 5.51 and 5.40
binding by MST trace analysis (result in words) (GB1-FRS2-PTB): no binding was detected
SMILES: COc1ncc(C(C)NC2CC(C)(C)NC(C)(C)C2)cc1Cl (stereo not drawn) [Compound 3.3]
